Experimental data from paper PMC3115942 (PLoS ONE, 2011).

How the values were obtained:
[1] = system: Gli1 protein in Sufu−/− MEF; test: Gli1 immunostaining of Sufu−/− MEF; assay type: cell-based, mouse; settings: 20 µM, 48 hours
[2] = system: GLI1 mRNA in SUIT-2 cells; test: Real time PCR of GLI1 mRNA in SUIT-2; assay type: cell-based, human; settings: 48 hrs
Description: (§1) Cells were lysed for RNA extraction after 48 or 72 hours of treatment. Total RNA from cultured cells or tumor tissue was isolated using the GeneElute miniprep kit (Sigma-Aldritch) following the manufacturer^'s instructions. cDNA was synthesized from the isolated mRNA using the Retroscript kit (Ambion), and real-time PCR was carried out using the SYBR Green PCR master mix (Stratagene) according to the manufacturer^'s instructions with an Mx3000P cycler (Stratagene). The relative concentrations of cDNA present in each sample were calculated by the MxPro software (Stratagene), normalized for GAPDH (mRNA from cells) or GUS (mRNA from tumors). For real time PCR primer sequences see Table 6. For the tumor tissue real time PCR, previously described human and mouse specific primers against GUSB, PTCH1 and GLI1were used.

[3] = system: Hh pathway in Shh-L2 cells; test: Hh reporter assay in Shh-L2 cells; assay type: cell-based, mouse; settings: Mus musculus; pathway inhibition in Shh induced Shh-L2 cells, 48 hours treatment
Description: Shh-L2 cells were used as a Hh reporter cell line as described previously. Hh signaling was induced by Shh conditioned medium, 200 nM SAG (AH-Diagnostics) and ActOXS (a combination of 5 µM Hydroxycholesterol 20-alfa and 5 µM Hydroxycholesterol 22S (Sigma-Aldrich)). For Shh conditioned medium, Shh-PANC-1 cells were grown to confluence and switched to fresh medium. Shh conditioned medium was harvested after 48 hours, and was diluted to 50% in fresh DMEM before use. The clonal Shh-PANC-1 cell line was generated by stably transducing PANC-1 cells with virus containing medium from HEK293T cells that were transfected using a Virapower Lentiviral expression kit (Invitrogen). The vector was produced by removing GFP from a pLenti 6.2-vector, and inserting the mouse Shh cDNA sequence.
The calculations were performed with an online calculator using the formula: a exp (−bx) + c at the website; http://www.changbioscience.com/stat/ec50.html

[4] = system: Gli1 mRNA expression in Sufu−/− MEF; test: Real time PCR of Gli1 mRNA in Sufu−/− MEF; assay type: cell-based, mouse; settings: 72 hours
Description: as §1

[5] = system: GLI1 mRNA in PC-3 cells; test: Real time PCR of GLI1 mRNA in PC-3; assay type: cell-based, human; settings: 48 hrs
Description: as §1

[6] = system: PANC-1, SUIT-2, PC-3 and FEMX cells; test: In vitro antiproliferative assay (MTS), tumor cell lines; assay type: cell-based, human; settings: 10 µM, 4 day exposure; across PANC-1, SUIT-2, PC-3 and FEMX
Description: (§2) Cells were plated at a density of 3000 (THLE-2 and PC-3) and 1000 (PANC-1, SUIT-2 and FEMX) cells per well (on the basis of their growth rate) in 200 µl of medium in a 96-well plate. Medium was changed daily, and after four days, the assay was read using a MTS kit (Promega) according to the instructions of the manufacturer. Graphs display average of percent growth with standard deviation (n = 8).

[7] = system: GLI1 mRNA in PANC-1 cells; test: Real time PCR of GLI1 mRNA in PANC-1; assay type: cell-based, human; settings: 5 µM, 48 hrs
Description: as §1

[8] = system: PANC-1 cells; test: In vitro antiproliferative assay (MTS), PANC-1; assay type: cell-based, human; settings: 5 µM, 4 day
Description: as §2

SMILES	total level of Gli1 in the cells [1]	GLI1 mRNA levels, SUIT-2 [2]	IC50 [3] [nM]	inhibitory effect on Hh signaling downstream of Smo in Sufu−/− MEFs [4]	GLI1 mRNA levels, PC-3 [5]	growth reduction (MTS) [6] [%]	GLI1 mRNA levels, PANC-1 [7]	growth (MTS), PANC-1 [8]
CC1=C2C[C@H]3[C@@H](CC=C4C[C@@H](O)CC[C@@]43C)[C@@H]2CC[C@]12O[C@@H]1C[C@H](C)CN[C@H]1[C@H]2C [cyclopamine, reference compound]	no significant effect	reduced GLI1 mRNA levels	210	little inhibitory effect	–	–	–	–
CS(=O)(=O)c1ccc(C(=O)Nc2ccc(Cl)c(-c3ccccn3)c2)c(Cl)c1 [GDC-0449, reference compound]	reduced Gli1 levels in the cells, but to a lesser extent than MS-0022	reduced GLI1 mRNA levels	30	little inhibitory effect	reduced GLI1 mRNA levels	≤ 30	without reducing GLI1 mRNA levels	reduced growth
